According to publication PMC3940698 (PLoS ONE, 2014):
Where two headings read alike, the source gives them in different places.

Columns and labels:
CYP2C9 [1] = molecular target: T1, CYP2C9 (Homo sapiens, UniProt P11712); assay: CYP2C9 baculosomes, diclofenac hydroxylation, inhibition; format: biochemical; conditions: for Localized Ki, Chance equation / Localized Ki, Cheng-Prusoff equation / Ki / Global Ki, linear regression / Global Ki, non-linear regression: CYP2C9+Diclof;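 on all read-outs here: reactions run at 27 °C in 100 mM potassium phosphate, pH 7.4, in a 250 µl volume, with hydroxylated product quantified from HPLC peak areas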
T1 construct: purchased Life Technologies (and Panvera), Invitrogen

CYP2E1 [2] = molecular target: T2, CYP2E1 (Homo sapiens, UniProt P05181); assay: CYP2E1 baculosomes, pNP reaction; conditions: for Ki, Cheng-Prusoff method (in words): pNP reactions, CYP2E1 baculosomes, inhibitor 10 nM
CYP3A4 = molecular target: T3, CYP3A4 (Homo sapiens, UniProt P08684); assay: CYP3A4 baculosomes, diclofenac or pNP product formation; format: biochemical; conditions: CYP3A4 baculosomes 20 nM, inhibitor equivalent amount, 30 minutes
T3 construct: host or cells: baculosomes

CYP2D6 = molecular target: T4, CYP2D6 (Homo sapiens, UniProt P10635); assay: CYP2D6 baculosomes, diclofenac or pNP product formation; format: biochemical; conditions: CYP2D6 baculosomes 20 nM, inhibitor equivalent amount, 30 minutes
T4 construct: host or cells: baculosomes

[3] = system: rat liver microsomes (mixed CYPs); assay: Rat liver microsomes, diclofenac hydroxylation, inhibition; format: biochemical; conditions: for Global Ki, non-linear regression: KM taken as 10 µM
Excerpt: In some reactions, another method was used.

[4] = system: various CYPs tested (CYP2C9, CYP3A4, CYP2D6, CYP2E1); assay: Ki of BzBr for the various CYPs tested (baculosomes, Diclof or pNP); conditions: equivalent substrate-BzBr concentrations
CYP2C9 [5] = molecular target: T1, CYP2C9; conditions: ref [4]-[6]; cited from earlier work
CYP2E1 [6] = molecular target: T2, CYP2E1
[7] = [I] 1 µM, read-out: Localized Ki, Cheng-Prusoff equation
[8] = [I] 100 µM, read-out: Localized Ki, Cheng-Prusoff equation
[9] = 10 nM CYP, 100 µM diclofenac, 200 µM NADPH
[10] = KM taken as 10 µM, 10 nM CYP, 100 µM diclofenac, 200 µM NADPH
[11] = [I] 0.01 µM, read-out: Localized Ki, Chance equation
[12] = [I] 1 µM, read-out: Localized Ki, Chance equation
[13] = Microsomes+Diclof, 0.5 µM CYP, 200 µM diclofenac, 400 µM NADPH
[14] = [I] 0.01 µM, read-out: Localized Ki, Cheng-Prusoff equation

T2 sequence (P05181 whole entry): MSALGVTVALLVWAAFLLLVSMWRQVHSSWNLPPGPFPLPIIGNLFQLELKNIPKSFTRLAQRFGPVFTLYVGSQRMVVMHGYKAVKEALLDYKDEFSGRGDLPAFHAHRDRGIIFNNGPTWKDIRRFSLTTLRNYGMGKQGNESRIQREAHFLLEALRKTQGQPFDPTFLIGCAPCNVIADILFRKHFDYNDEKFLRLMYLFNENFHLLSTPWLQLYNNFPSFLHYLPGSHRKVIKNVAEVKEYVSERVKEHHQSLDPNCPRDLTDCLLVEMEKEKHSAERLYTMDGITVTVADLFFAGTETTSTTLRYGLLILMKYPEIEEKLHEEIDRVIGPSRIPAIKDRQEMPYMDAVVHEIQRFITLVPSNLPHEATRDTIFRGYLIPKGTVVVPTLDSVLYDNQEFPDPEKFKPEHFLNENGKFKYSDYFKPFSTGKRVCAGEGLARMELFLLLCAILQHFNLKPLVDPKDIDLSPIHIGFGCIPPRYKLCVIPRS
T1 sequence (P11712 whole entry): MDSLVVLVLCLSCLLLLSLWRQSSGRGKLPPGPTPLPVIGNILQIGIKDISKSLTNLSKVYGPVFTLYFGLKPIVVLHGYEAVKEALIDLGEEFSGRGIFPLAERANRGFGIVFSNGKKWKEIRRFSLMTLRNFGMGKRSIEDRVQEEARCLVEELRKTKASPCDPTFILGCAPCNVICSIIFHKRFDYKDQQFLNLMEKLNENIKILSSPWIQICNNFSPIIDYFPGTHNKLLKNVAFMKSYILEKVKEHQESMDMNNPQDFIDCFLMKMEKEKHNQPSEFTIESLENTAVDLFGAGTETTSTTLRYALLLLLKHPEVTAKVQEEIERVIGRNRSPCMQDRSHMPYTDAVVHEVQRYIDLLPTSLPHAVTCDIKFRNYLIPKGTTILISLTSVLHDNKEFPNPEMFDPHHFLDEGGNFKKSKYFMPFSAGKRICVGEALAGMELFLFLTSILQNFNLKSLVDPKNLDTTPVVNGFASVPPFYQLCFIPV
T3 sequence (P08684 2-503 limits assumed): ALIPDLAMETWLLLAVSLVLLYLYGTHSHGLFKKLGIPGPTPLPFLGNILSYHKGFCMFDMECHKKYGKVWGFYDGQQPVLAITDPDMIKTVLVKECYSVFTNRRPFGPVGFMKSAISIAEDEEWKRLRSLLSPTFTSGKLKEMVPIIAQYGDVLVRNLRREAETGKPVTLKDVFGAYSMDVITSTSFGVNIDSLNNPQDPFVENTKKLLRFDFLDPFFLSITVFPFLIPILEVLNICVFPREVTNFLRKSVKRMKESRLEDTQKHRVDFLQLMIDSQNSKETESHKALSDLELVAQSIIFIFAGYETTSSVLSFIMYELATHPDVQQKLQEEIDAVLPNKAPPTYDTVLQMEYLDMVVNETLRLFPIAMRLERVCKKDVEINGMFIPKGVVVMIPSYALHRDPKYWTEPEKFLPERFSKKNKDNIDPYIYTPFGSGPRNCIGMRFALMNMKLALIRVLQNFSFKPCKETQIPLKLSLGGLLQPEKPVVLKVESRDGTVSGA
T4 sequence (P10635 whole entry): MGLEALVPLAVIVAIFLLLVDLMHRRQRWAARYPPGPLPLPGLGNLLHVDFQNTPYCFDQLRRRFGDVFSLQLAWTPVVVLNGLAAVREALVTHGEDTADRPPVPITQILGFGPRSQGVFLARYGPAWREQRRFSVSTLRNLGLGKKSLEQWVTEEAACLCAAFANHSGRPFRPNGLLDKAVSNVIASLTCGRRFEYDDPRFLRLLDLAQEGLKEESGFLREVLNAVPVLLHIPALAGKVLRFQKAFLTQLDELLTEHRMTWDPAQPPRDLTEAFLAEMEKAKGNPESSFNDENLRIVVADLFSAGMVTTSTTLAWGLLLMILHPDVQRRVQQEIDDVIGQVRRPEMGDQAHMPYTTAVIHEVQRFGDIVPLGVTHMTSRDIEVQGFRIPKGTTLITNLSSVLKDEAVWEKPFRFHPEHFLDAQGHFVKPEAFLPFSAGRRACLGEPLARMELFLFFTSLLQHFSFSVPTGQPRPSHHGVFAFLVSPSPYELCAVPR

## COc1cc(Br)c(O)c(Br)c1 [DBMP]
CYP2C9 [1]; [I] 0.01 µM
  Localized Ki, Chance equation: -
  Localized Ki, Cheng-Prusoff equation: -
CYP2C9 [1]; [7]
  Ki: 0.306 µM
CYP2C9 [1]; [8]
  Ki: 95.4 µM
CYP2E1 [2]
  Ki, Cheng-Prusoff method (in words): low nM ranges

## CCc1oc2ccccc2c1C(=O)c1cc(I)c(OC)c(I)c1 [MeOBzIr]
CYP2C9 [1]; [9]
  Global Ki, linear regression: -
CYP2C9 [1]; [10]
  Global Ki, non-linear regression: -

## Benzothiadiazole
CYP3A4; 80 µM Diclof
  Relative percentage of hydroxylated product formed vs positive control: 17%
CYP3A4; 80 µM pNP
  Relative percentage of hydroxylated product formed vs positive control: ∼15%
CYP2D6; 80 µM Diclof
  Relative percentage of hydroxylated product formed vs positive control: 0.3%
CYP2D6; 80 µM pNP
  Relative percentage of hydroxylated product formed vs positive control: ∼15%
CYP2C9 [1]; CYP2C9 baculosomes 20 nM, 80 µM Diclof, inhibitor equivalent amount, 250 µM NADPH, 30 minutes
  Relative percentage of hydroxylated product formed vs positive control: 90.1%
CYP2E1 [2]; CYP2E1 baculosomes 20 nM, 80 µM pNP, inhibitor equivalent amount, 30 minutes
  Relative percentage of hydroxylated product formed vs positive control: 15%

## vitamin E [Vit. E]
CYP2C9 [1]; baculosome reaction setup
  Ki (in words): ∼nM

## O=C(O)c1cc(Br)c(O)c(Br)c1 [DBHB]
CYP2C9 [1]; [11]
  Ki: 0.0064 µM
CYP2C9 [1]; [12]
  Ki: 97.7 µM
CYP2C9 [1]; [7]
  Ki: 0.0899 µM
CYP2C9 [1]; [8]
  Ki: 8.68 µM
CYP2C9 [1]; CYP2C9 baculosomes
  Ki via non-linear regression (in words): sub-nanomolar
CYP2C9 [1]; CYP2C9 baculosomes, same experimental data
  Ki via linear regression analysis (in words): supra-millimolar
CYP2E1 [2]
  Ki, Cheng-Prusoff method (in words): low nM ranges

## CCc1oc2ccccc2c1C(=O)c1cc(Br)c(O)c(Br)c1 [BzBr, benzbromarone]
[3]; [13]
  Global Ki, linear regression: -
  Global Ki, non-linear regression: -
[4]
  Ki derived from calculations (in words): Submicromolar
CYP2E1 [2]
  Ki, Cheng-Prusoff method (in words): low nM ranges

## NC(Cc1cc(I)c(O)c(I)c1)C(=O)O (centres unmarked) [DIT]
CYP2C9 [1]; [9]
  Global Ki, linear regression: -
CYP2C9 [1]; [10]
  Global Ki, non-linear regression: -
CYP2C9 [1]; [11]
  Ki: 0.0055 µM
CYP2C9 [1]; [14]
  Ki: 0.0007 µM
CYP2C9 [1]; [I] 1 µM
  Localized Ki, Chance equation: -
  Localized Ki, Cheng-Prusoff equation: -
CYP2C9 [1]; [8]
  Ki: 42.6 µM

## CCc1oc2ccccc2c1C(=O)c1ccc(OC)cc1 [MeOBzr]
[3]; Microsomes+Diclof, 0.5 µM CYP, 200 µM diclofenac, 400 µM NADPH, read-out: Global Ki, linear regression
  Ki: 0.242 µM
CYP2C9 [1]; [9]
  Global Ki, linear regression: -
CYP2C9 [1]; [10]
  Global Ki, non-linear regression: -

## Oc1c(Br)cccc1Br [DBP]
[3]; mixed microsomes, 100 µM
  Inhibition at 100 µM: failed to give any inhibition
CYP2C9 [1]; [7]
  Ki: 2.61 µM
CYP2C9 [1]; [I] 100 µM
  Localized Ki, Chance equation: -
  Localized Ki, Cheng-Prusoff equation: -
CYP2C9 [1]; CYP2C9 baculosome system, 10 nM
  Ki at 10 nM inhibitor (in words): nanomolar
CYP2C9 [1]; CYP2C9 baculosome system, 1 µM
  Ki at 1 µM inhibitor (in words): micromolar
CYP2C9 [1]; CYP2C9 baculosome system, 100 µM
  Inhibition at 100 µM: failed to give any inhibition
CYP2E1 [2]
  Ki, Cheng-Prusoff method (in words): low nM ranges

## CCc1oc2ccccc2c1C(=O)c1cc(Br)c(OC)c(Br)c1 [MeOBzBr]
[3]; read-out: Ki at 100 µM inhibitor, microsome setups, 100 µM inhibitor
  Ki: 3.7 µM

## CCc1oc2ccccc2c1C(=O)c1cc(I)c(O)c(I)c1 [BzIr, benziodarone]
[3]; [13]
  Global Ki, linear regression: -
  Global Ki, non-linear regression: -
CYP2C9 [5]
  Ki: ≤ 0.001 µM
CYP2C9 [1]; 10 nM CYP, 100 µM diclofenac, 200 µM NADPH, read-out: Global Ki, linear regression
  Ki: 30.9 µM
CYP2C9 [1]; KM taken as 10 µM, 10 nM CYP, 100 µM diclofenac, 200 µM NADPH, read-out: Global Ki, non-linear regression
  Ki: 0.0028 µM
CYP2C9 [1]; [11]
  Ki: 0.243 µM
CYP2C9 [1]; [14]
  Ki: 0.0026 µM
CYP2C9 [1]; [12]
  Ki: 0.995 µM
CYP2C9 [1]; [7]
  Ki: 0.0091 µM
CYP2C9 [1]; [I] 100 µM, read-out: Localized Ki, Chance equation
  Ki: 190 µM
CYP2C9 [1]; [8]
  Ki: 0.65 µM
CYP2E1 [6]
  Ki, Cheng-Prusoff method (in words): low nM ranges
